From paper PMC9410537, “Discovery of Ircinianin Lactones B and C—Two New Cyclic Sesterterpenes from the Marine Sponge Ircinia wistarii” (Marine Drugs, 2022) come the findings set out here.

As usually defined, the IC50 is the concentration that gives 50% inhibition. What is called MIC is the lowest concentration that inhibits growth of the organism. Read a high MIC as weaker potency.

Data set [1] concerns P. falciparum NF54 strain. The data set can be described thus: In vitro activity against erythrocytic stages of P. falciparum (3H-hypoxanthine incorporation assay). It counts as cell-based. The conditions noted are these: Plasmodium falciparum, Table 2 values are means of two independent assays. Here is the method:
Activity against P. falciparum. In vitro activity against erythrocytic stages of P. falciparum was determined using a ^3H-hypoxanthine incorporation assay against the drug-sensitive NF54 strain [76]. Compounds were dissolved in DMSO at 10 mg/mL and further diluted in medium before being added to parasite cultures incubated in RPMI 1640 medium without hypoxanthine, supplemented with HEPES (5.94 g/L), NaHCO3 (2.1 g/L), neomycin (100 U/mL), Albumax^R (5 g/L) and washed human red cells A^+ at 2.5% haematocrit (0.3% parasitaemia). Serial drug dilutions ranged from 100 to 0.002 μg/mL. The 96-well plates were incubated in a humidified atmosphere at 37 °C; 4% CO2, 3% O2, 93% N2. After 48 h 50 μL of ^3H-hypoxanthine (=0.5 μCi) was added to each well of the plate. The plates were incubated for a further 24 h under the same conditions. The plates were then harvested with a Betaplate™ cell harvester (Wallac, Zurich, Switzerland) and the red blood cells were transferred onto a glass fiber filter then washed with distilled water. The dried filters were inserted into a plastic foil with 10 mL of scintillation fluid and counted in a Betaplate™ liquid scintillation counter (Wallac, Zurich, Switzerland). IC50 values were calculated from sigmoidal inhibition curves by linear regression using Microsoft Excel. Chloroquine diphosphate (Sigma C6628) was used as control (IC50 0.006 ± 0.002 μM).

Data set [2] has as its system L. donovani strain MHOM/ET/67/L82 axenic amastigotes. The experiment in a line: Activity against L. donovani axenic amastigotes (resazurin). The conditions noted are these: Leishmania donovani, in vitro, Table 2 values are means of two independent assays. The data set is classed as cell-based, Leishmania donovani. Here is the method: Activity against L. donovani axenic amastigotes. Amastigotes of L. donovani strain MHOM/ET/67/L82 were grown in axenic culture at 37 °C in SM medium at pH 5.4 supplemented with 10% heat-inactivated fetal bovine serum under an atmosphere of 5% CO2 in air. 100 µL of culture medium with 10^5 amastigotes from axenic culture with or without a serial drug dilution were seeded in 96-well microtiter plates. Serial drug dilutions ranged from 100 to 0.002 μg/mL. After 70 h of incubation, the plates were inspected under an inverted microscope to assure growth of the controls and sterile conditions.
For orientation: The colour change of resazurin is a common sign of viable cells or microbes.

Data set [3] concerns set of clinically relevant bacteria (ESKAPE panel and one mycobacterial strain). The data set can be described thus: Antibacterial assay (MIC), whole strain panel. The data set is classed as cell-based. The conditions noted are these: highest concentration tested. Here is the method: The minimal inhibitory concentration (MIC) was determined as described previously in cation-adjusted Mueller-Hinton medium according to the standards and guidelines of the Clinical and Laboratory Standards Institute. […] After an overnight incubation at 37 °C, the MIC was read as the lowest compound concentration preventing visible bacterial growth. The strain panel included representative species of nosocomial pathogens, known as “[…]” bacteria. Specifically, the following strains were used: Enterococcus faecium BM 4147-1, Staphylococcus aureus ATCC 29213, Klebsiella pneumoniae ATCC 12657, Acinetobacter baumannii 09987, Pseudomonas aeruginosa ATCC 27853, and Enterobacter aerogenes ATCC 13048. Bacillus subtilis 168, Escherichia coli ATCC 25922, and Mycobacterium smegmatis mc^2 155 ATCC 700084 were used as further reference strains.

For the next data set, the system named is Wolbachia endosymbionts. The data set can be described thus: Anthelmintic assay, depletion of Wolbachia endosymbionts from cultured adult female worms. It counts as cell-based, Litomosoides sigmodontis. The following applies: 0.1, 1 and 10 µM, two weeks of in vitro culture; not statistically significant. Here is the method:
To investigate the activity against filarial nematodes, adult female worms of the rodent filarial nematode Litomosoides sigmodontis were cultured in vitro with a 0.1, 1 and 10 µM concentration of 1. Motility of adult filariae as well as reduction of Wolbachia endosymbionts were assessed. […] L. sigmodontis adult female worms were isolated from chronically infected cotton rats (UKB). Three L. sigmodontis female adult worms per condition were cultured in supplemented Minimal Essential Medium (MEM) on a LLCMK2 cell layer, as previously described. […] Candidate 1 was tested at concentrations of 0.1, 1 and 10 µM. Filarial viability was assessed by determining the mean worm motility scores on a scale of 0 (immotile) to 2 (maximum motility) before drug addition and at 1 h, 1 day, 2 day, 4 day, 6 day, 8 day, 10 day, 12 day and 14 day post drug addition. The drug-containing media was renewed every other day. Depletion of Wolbachia endosymbionts from female adult worms was analyzed after two weeks of in vitro culture and determined as previously described using primers for the single copy gene Wolbachia ftsZ.

For data set [4], the system named is panel comprising 60 human cancer cell lines. The data set can be described thus: One dose NCI-60 cell-line cytotoxicity screen. It counts as cell-based. The conditions noted are these: single high dose. An excerpt:
One dose NCI-60 panel: 1 was selected for the anticancer drug screening service as a part of the Developmental Therapeutics Program at the National Cancer Institute (NCI). In vitro tumor growth inhibitory effects were explored using a standard protocol with a single high dose test against a panel comprising 60 human cancer cell lines. It is noteworthy to mention that we had to remove the results of the NCI-H23 cell line, since NCI informed us that its cell line’s identity was not authenticated during the time frame in which the screening of 1 was conducted.

Data set [5] has as its system L-6 cells (rat skeletal myoblasts). The experiment in a line: In vitro cytotoxicity assay with L-6 cells (resazurin). It counts as cell-based. The following applies: L6, L-6 cells, read-out: IC50 L6. Here is the method: In vitro cytotoxicity assay with L-6 cells. Assays were performed in 96-well microtiter plates, each well containing 100 μL of RPMI 1640 medium supplemented with 1% L-glutamine (200 mM) and 10% fetal bovine serum, and 4000 L-6 cells (a primary cell line derived from rat skeletal myoblasts). Serial drug dilutions ranged from 100 to 0.002 μg/mL. After 70 h of incubation, the plates were inspected under an inverted microscope to assure growth of the controls and sterile conditions. 10 μL of resazurin was then added to each well and the plates were incubated for another 2 h. […] Podophyllotoxin (Sigma P4405) was used as control (IC50 0.011 ± 0.005 μM).

The subject of a further data set is Ciona savignyi larvae. The experiment in a line: Marine antifouling assay, larval settlement and metamorphosis. The conditions noted are these: up to the highest concentration tested (100 µg/mL), 5 days. Here is the method: (§1) Antifouling activity was assessed via inhibition of settlement and metamorphosis of larvae of the Pacific transparent sea squirt (Ciona savignyi) and the blue mussel (Mytilus galloprovincialis). Methods followed those published by Grant et al.. Adults of both species were collected from coastal populations in the Nelson region of New Zealand, held in a recirculating seawater system (18 ± 1 °C, 33 ± 1 PSU) and fed bulk-cultured Isochorysis galbana until ready to spawn. Larval spawning and rearing procedures followed previously described methods for C. savignyi and M. gallorprovincialis. Competent larvae were diluted in artificial seawater to yield 3 ± 1 larvae/mL. Aliquots of these larval suspensions were added to 12-well tissue culture plates (Corning Co-Star) containing serial dilutions of 1 ranging from 0.1–100 µg/mL. Controls were included, and three replicates were performed in all cases. After 5 days of incubation at 18 ± 1 °C, the number of successfully settled and metamorphosed individuals were counted in each well. Sigmoidal dose-response relationships were explored using R Statistical Software to determine whether inhibition had occurred relative to the controls.

In data set [6] the test system is Mytilus galloprovincialis larvae. Described as above. The following applies: up to the highest concentration tested (100 µg/mL), 5 days. Here is the method: as §1

Where two headings read alike, the source gives them in different places.

For the compound `CC1=C[C@@H](/C=C(\C)CCCc2ccoc2)[C@]2(OC(=O)C(C)=C2O)[C@@H]2[C@@H](C)CC[C@@H]12` [compound 1, Ircinianin], the concentration for half-maximal inhibition (IC50) turned out to be 25.4 µM in data set [1], 16.6 µM in data set [2], 150 µM in data set [5] (70 h incubation) and 59.5 mg/L in data set [5] (single cell line assays (Table S7)). In data set [3], the MIC is greater than 32 mg/L. In addition, the “Wolbachia reduction in comparison to media controls” value in the data set on Wolbachia endosymbionts is less than 32%. Also, the “Activity in NCI 60 cell-line cytotoxicity screen” value in data set [4] is recorded as “no activity”. The “Inhibitory effect on larval settlement and metamorphosis” value (in the data set on Ciona savignyi larvae; in data set [6]) was “inactive” each time.
